Experimental data published in PMC5218480 (PLoS ONE, 2017).

System: MV-4-11 cells
Experiment: Gene expression microarray analysis (Affymetrix PrimeView) and GSEA
Type: cell-based, human
Design: RFU PODN (11730768_x_at) / Fold change /veh PODN (11730768_x_at) / RFU LINC00158 (11744669_a_at) / Fold change /veh LINC00158 (11744669_a_at) / RFU DUSP10 (11751237_a_at) / Fold change /veh DUSP10 (11751237_a_at) / RFU ID3 (11757404_x_at) / Fold change /veh ID3 (11757404_x_at) / RFU PLEKHG5 (11737974_s_at) / Fold change /veh PLEKHG5 (11737974_s_at) / RFU LRRC4B (11730491_at) / Fold change /veh LRRC4B (11730491_at) / RFU GIMAP4 (11747438_a_at) / Fold change /veh GIMAP4 (11747438_a_at) / RFU KRT8 (11758183_x_at) / Fold change /veh KRT8 (11758183_x_at) / RFU CNN1 (11734310_a_at) / Fold change /veh CNN1 (11734310_a_at) / RFU VPS37D (11726825_at) / Fold change /veh VPS37D (11726825_at) / RFU C10orf10 (11716522_x_at) / Fold change /veh C10orf10 (11716522_x_at) / RFU KIR2DL2 /// KIR2DL4 /// KIR2DL5A /// KIR2DL5B /// KIR2DS1 /// KIR2DS2 /// KIR2DS3 /// KIR2DS4 /// KIR3DL3 /// KIR3DL3 /// KIR3DS1 (11738374_at) / Fold change /veh KIR2DL2 /// KIR2DL4 /// KIR2DL5A /// KIR2DL5B /// KIR2DS1 /// KIR2DS2 /// KIR2DS3 /// KIR2DS4 /// KIR3DL3 /// KIR3DL3 /// KIR3DS1 (11738374_at) / RFU C1QL1 (11718748_at) / Fold change /veh C1QL1 (11718748_at) / RFU TMPRSS4 (11747572_a_at) / Fold change /veh TMPRSS4 (11747572_a_at) / RFU HAMP (11756126_x_at) / Fold change /veh HAMP (11756126_x_at) / RFU RNFT2 (11725882_a_at) / Fold change /veh RNFT2 (11725882_a_at) / RFU NR4A2 (11747474_a_at) / Fold change /veh NR4A2 (11747474_a_at) / RFU ABCC12 (11746883_a_at) / Fold change /veh ABCC12 (11746883_a_at) / RFU TMEM136 (11760407_x_at) / Fold change /veh TMEM136 (11760407_x_at) / RFU CLDN22 /// WWC2 (11732394_at) / Fold change /veh CLDN22 /// WWC2 (11732394_at) / RFU HLA-DPB1 (11760878_x_at) / Fold change /veh HLA-DPB1 (11760878_x_at) / RFU SPINT1 (11716480_a_at) / Fold change /veh SPINT1 (11716480_a_at) / RFU GAP43 (11754022_s_at) / Fold change /veh GAP43 (11754022_s_at) / RFU A4GNT (11735810_at) / Fold change /veh A4GNT (11735810_at) / RFU PRB3 (11715151_x_at) / Fold change /veh PRB3 (11715151_x_at) / RFU TUBB4B (11761932_at) / Fold change /veh TUBB4B (11761932_at) / RFU CAPN14 (11732068_a_at) / Fold change /veh CAPN14 (11732068_a_at) / RFU TMCC2 (11721928_a_at) / Fold change /veh TMCC2 (11721928_a_at) / RFU IRGQ (11745062_a_at) / Fold change /veh IRGQ (11745062_a_at) / RFU FAM174B (11720279_a_at) / Fold change /veh FAM174B (11720279_a_at) / RFU TMPRSS4 (11748680_a_at) / Fold change /veh TMPRSS4 (11748680_a_at) / RFU FAM212B (11763350_a_at) / Fold change /veh FAM212B (11763350_a_at) / RFU PLEKHG5 (11743358_a_at) / Fold change /veh PLEKHG5 (11743358_a_at) / RFU ZSCAN30 (11745921_a_at) / Fold change /veh ZSCAN30 (11745921_a_at) / RFU CMKLR1 (11741424_a_at) / Fold change /veh CMKLR1 (11741424_a_at) / RFU LOC101060620 /// MAPK8IP1 (11723275_at) / Fold change /veh LOC101060620 /// MAPK8IP1 (11723275_at) / RFU SPTSSB (11747773_x_at) / Fold change /veh SPTSSB (11747773_x_at) / RFU PRSS12 (11739890_at) / Fold change /veh PRSS12 (11739890_at) / RFU BIN1 (11741810_x_at) / Fold change /veh BIN1 (11741810_x_at) / RFU WNT11 (11732464_a_at) / Fold change /veh WNT11 (11732464_a_at) / RFU C10orf10 (11716521_a_at) / Fold change /veh C10orf10 (11716521_a_at) / RFU C5orf56 (11738089_at) / Fold change /veh C5orf56 (11738089_at) / RFU CYB561 (11721691_x_at) / Fold change /veh CYB561 (11721691_x_at) / RFU ANKRD19P (11752326_a_at) / Fold change /veh ANKRD19P (11752326_a_at) / RFU OR2T12 /// OR2T33 /// OR2T8 (11738714_s_at) / Fold change /veh OR2T12 /// OR2T33 /// OR2T8 (11738714_s_at) / RFU VCAN (11748164_a_at) / Fold change /veh VCAN (11748164_a_at) / RFU JSRP1 (11732532_at) / Fold change /veh JSRP1 (11732532_at) / RFU KRTAP10-11 (11738290_x_at) / Fold change /veh KRTAP10-11 (11738290_x_at) / RFU MYO3A (11730013_a_at) / Fold change /veh MYO3A (11730013_a_at) / RFU EBF3 (11725865_a_at) / Fold change /veh EBF3 (11725865_a_at) / RFU CAMK2N1 (11719241_x_at) / Fold change /veh CAMK2N1 (11719241_x_at) / RFU C5orf56 (11738088_a_at) / Fold change /veh C5orf56 (11738088_a_at) / RFU OLFML3 (11715873_a_at) / Fold change /veh OLFML3 (11715873_a_at) / RFU LOC100653217 /// NTM (11731650_a_at) / Fold change /veh LOC100653217 /// NTM (11731650_a_at) / RFU MAPK11 (11762145_a_at) / Fold change /veh MAPK11 (11762145_a_at) / RFU FIZ1 (11724087_x_at) / Fold change /veh FIZ1 (11724087_x_at) / RFU OASL (11726364_x_at) / Fold change /veh OASL (11726364_x_at) / RFU SOX15 (11748057_x_at) / Fold change /veh SOX15 (11748057_x_at) / RFU CD79A (11719716_a_at) / Fold change /veh CD79A (11719716_a_at) / RFU HIST1H1D (11736915_at) / Fold change /veh HIST1H1D (11736915_at) / RFU CASKIN2 (11723855_a_at) / Fold change /veh CASKIN2 (11723855_a_at) / RFU LOC730098 (11760151_x_at) / Fold change /veh LOC730098 (11760151_x_at) / RFU OR4N2 (11742367_at) / Fold change /veh OR4N2 (11742367_at) / RFU PRRT2 (11749266_a_at) / Fold change /veh PRRT2 (11749266_a_at) / RFU SNX32 (11753110_a_at) / Fold change /veh SNX32 (11753110_a_at) / RFU CDHR5 (11726645_a_at) / Fold change /veh CDHR5 (11726645_a_at) / RFU RCAN1 (11760418_a_at) / Fold change /veh RCAN1 (11760418_a_at) / RFU FAM167A (11723789_a_at) / Fold change /veh FAM167A (11723789_a_at) / RFU FAM26E (11764081_at) / Fold change /veh FAM26E (11764081_at) / RFU ISYNA1 (11749810_s_at) / Fold change /veh ISYNA1 (11749810_s_at) / RFU ACY1 (11761880_at) / Fold change /veh ACY1 (11761880_at) / RFU 11764098_at / Fold change /veh 11764098_at / RFU SAMD14 (11745864_x_at) / Fold change /veh SAMD14 (11745864_x_at) / RFU NPB (11741838_a_at) / Fold change /veh NPB (11741838_a_at) / RFU TMPRSS6 (11731388_a_at) / Fold change /veh TMPRSS6 (11731388_a_at) / RFU KRTAP10-2 (11738614_at) / Fold change /veh KRTAP10-2 (11738614_at) / RFU ARHGAP8 /// PRR5-ARHGAP8 (11727945_x_at) / Fold change /veh ARHGAP8 /// PRR5-ARHGAP8 (11727945_x_at) / RFU KRTAP5-7 /// NADSYN1 (11734609_at) / Fold change /veh KRTAP5-7 /// NADSYN1 (11734609_at) / RFU RASL12 (11751679_a_at) / Fold change /veh RASL12 (11751679_a_at) / RFU CDKN2B (11736163_a_at) / Fold change /veh CDKN2B (11736163_a_at) / RFU PRF1 (11729649_at) / Fold change /veh PRF1 (11729649_at) / RFU, ZNF638 /// ZNF638-IT1 / Fold change vs veh, ZNF638 /// ZNF638-IT1 / RFU, PANK3 / Fold change vs veh, PANK3 / RFU, SH3YL1 / Fold change vs veh, SH3YL1 / RFU, ZEB2 / Fold change vs veh, ZEB2 / RFU, NRIP1 / Fold change vs veh, NRIP1 / RFU, PTTG1IP / Fold change vs veh, PTTG1IP / RFU, CAPN2 / Fold change vs veh, CAPN2 / RFU, MED14 / Fold change vs veh, MED14 / RFU, SNORA58 / Fold change vs veh, SNORA58 / RFU, C1orf63 / Fold change vs veh, C1orf63 / RFU, LRRFIP1 / Fold change vs veh, LRRFIP1 / RFU, NDUFAF7 / Fold change vs veh, NDUFAF7 / RFU, SLC12A2 / Fold change vs veh, SLC12A2 / RFU, IBTK / Fold change vs veh, IBTK / RFU, ESF1 / Fold change vs veh, ESF1 / Fold change vs veh, TMEM50B / RFU, TAOK1 / Fold change vs veh, TAOK1 / RFU, ACBD3 / Fold change vs veh, ACBD3 / RFU, TMA16 / Fold change vs veh, TMA16 / RFU, RWDD3 / Fold change vs veh, RWDD3 / RFU, BCAT1 / Fold change vs veh, BCAT1 / RFU, EDEM3 / Fold change vs veh, EDEM3 / RFU, TMEM33 / Fold change vs veh, TMEM33 / RFU, WDR75 / Fold change vs veh, WDR75 / RFU, AHCTF1 / Fold change vs veh, AHCTF1 / RFU, TFRC / Fold change vs veh, TFRC / RFU, ZDHHC17 / Fold change vs veh, ZDHHC17 / RFU, NOM1 / Fold change vs veh, NOM1 / RFU, ARL8B / Fold change vs veh, ARL8B / RFU, ZBTB11 / Fold change vs veh, ZBTB11 / RFU, TAMM41 / Fold change vs veh, TAMM41 / RFU, KIAA1704 /// LOC100996395 / Fold change vs veh, KIAA1704 /// LOC100996395 / RFU, ING1 / Fold change vs veh, ING1 / RFU, TRMT61B / Fold change vs veh, TRMT61B / RFU, FUBP3 / Fold change vs veh, FUBP3 / RFU, TP53 / Fold change vs veh, TP53 / RFU, TNKS2 / Fold change vs veh, TNKS2 / RFU, ZFP14 / Fold change vs veh, ZFP14 / RFU, ACTR2 / Fold change vs veh, ACTR2 / RFU, PPP3R1 / Fold change vs veh, PPP3R1 / RFU, PIK3R1 / Fold change vs veh, PIK3R1 / RFU, HNRNPA1 / Fold change vs veh, HNRNPA1 / RFU, RNF170 / Fold change vs veh, RNF170 / RFU, ZNF28 / Fold change vs veh, ZNF28 / RFU, RNGTT / Fold change vs veh, RNGTT / RFU, OGT / Fold change vs veh, OGT / RFU, BRD1 / Fold change vs veh, BRD1 / RFU, MARS / Fold change vs veh, MARS / RFU, ZNF655 / Fold change vs veh, ZNF655 / RFU, FAHD1 / Fold change vs veh, FAHD1 / RFU, BDP1 / Fold change vs veh, BDP1 / RFU, LRRCC1 / Fold change vs veh, LRRCC1 / RFU, ARID1A / Fold change vs veh, ARID1A / RFU, ZNF146 / Fold change vs veh, ZNF146 / RFU, ZNF330 / Fold change vs veh, ZNF330 / RFU, GPN3 / Fold change vs veh, GPN3 / RFU, C9orf123 / Fold change vs veh, C9orf123 / RFU, N4BP2L2 / Fold change vs veh, N4BP2L2 / RFU, ARFIP1 / Fold change vs veh, ARFIP1 / RFU, FAM179B / Fold change vs veh, FAM179B / RFU, BCL10 / Fold change vs veh, BCL10 / RFU, UHRF1BP1L / Fold change vs veh, UHRF1BP1L / RFU, BET1 / Fold change vs veh, BET1 / RFU, CNOT2 / Fold change vs veh, CNOT2 / RFU, ZNF268 / Fold change vs veh, ZNF268 / Fold change vs veh, ZNF507 / RFU, DGCR2 / Fold change vs veh, DGCR2 / RFU, WDSUB1 / Fold change vs veh, WDSUB1 / Fold change vs veh, HSP90B1 /// MIR3652 / RFU, ADSS / Fold change vs veh, ADSS / RFU, GK / Fold change vs veh, GK / RFU, ZNF148 / Fold change vs veh, ZNF148 / RFU, TAF9 / Fold change vs veh, TAF9 / RFU, SLC1A5 / Fold change vs veh, SLC1A5 / RFU, SLMO2 / Fold change vs veh, SLMO2 / RFU, ABCC4 / Fold change vs veh, ABCC4 / RFU, LOC101060439 /// RAP1B / Fold change vs veh, LOC101060439 /// RAP1B / RFU, RFX7 / Fold change vs veh, RFX7 / RFU, GTPBP10 / Fold change vs veh, GTPBP10 / RFU, CNEP1R1 / Fold change vs veh, CNEP1R1 / RFU, BIVM-ERCC5 /// ERCC5 / Fold change vs veh, BIVM-ERCC5 /// ERCC5 / RFU, ILF3 / Fold change vs veh, ILF3 / RFU 11762660_at / Fold change /veh 11762660_at / RFU VCAN (11757783_s_at) / Fold change /veh VCAN (11757783_s_at) / RFU DDX43 (11728927_at) / Fold change /veh DDX43 (11728927_at) / RFU KRT8 (11758188_x_at) / Fold change /veh KRT8 (11758188_x_at) / RFU NKD1 (11759106_at) / Fold change /veh NKD1 (11759106_at) / RFU SRD5A1 (11742802_a_at) / Fold change /veh SRD5A1 (11742802_a_at) / RFU TPSAB1 /// TPSB2 (11721975_s_at) / Fold change /veh TPSAB1 /// TPSB2 (11721975_s_at) / RFU GSTM3 (11746129_a_at) / Fold change /veh GSTM3 (11746129_a_at) / RFU IL23R (11737362_x_at) / Fold change /veh IL23R (11737362_x_at) / RFU TMEM51 (11727254_a_at) / Fold change /veh TMEM51 (11727254_a_at) / RFU PIWIL2 (11732686_x_at) / Fold change /veh PIWIL2 (11732686_x_at) / RFU ORM1 (11744905_x_at) / Fold change /veh ORM1 (11744905_x_at) / RFU CCDC152 (11743942_at) / Fold change /veh CCDC152 (11743942_at) / RFU ECM1 (11717891_a_at) / Fold change /veh ECM1 (11717891_a_at) / RFU IL23R (11748794_a_at) / Fold change /veh IL23R (11748794_a_at) / RFU TNFAIP8L3 (11732012_x_at) / Fold change /veh TNFAIP8L3 (11732012_x_at) / RFU MBOAT4 (11741988_at) / Fold change /veh MBOAT4 (11741988_at) / RFU 11764193_at / Fold change /veh 11764193_at / RFU TMEM53 (11763286_at) / Fold change /veh TMEM53 (11763286_at) / RFU MAGEB2 (11727129_at) / Fold change /veh MAGEB2 (11727129_at) / RFU TMEM200A (11744735_a_at) / Fold change /veh TMEM200A (11744735_a_at) / RFU CCDC152 (11751479_a_at) / Fold change /veh CCDC152 (11751479_a_at) / RFU FAM211A (11726209_a_at) / Fold change /veh FAM211A (11726209_a_at) / RFU RGS16 (11746705_a_at) / Fold change /veh RGS16 (11746705_a_at) / RFU VCAN (11755009_s_at) / Fold change /veh VCAN (11755009_s_at) / RFU RHOB (11743442_s_at) / Fold change /veh RHOB (11743442_s_at) / RFU RGS16 (11720943_a_at) / Fold change /veh RGS16 (11720943_a_at) / RFU RGS16 (11720944_at) / Fold change /veh RGS16 (11720944_at) / RFU, VPS4B / Fold change vs veh, VPS4B / RFU, CREB1 / Fold change vs veh, CREB1 / RFU, DNAJC13 / Fold change vs veh, DNAJC13 / RFU, GNAQ / Fold change vs veh, GNAQ / RFU, CDK5R1 / Fold change vs veh, CDK5R1 / RFU, ZRANB3 / Fold change vs veh, ZRANB3 / RFU, CUL4A / Fold change vs veh, CUL4A / RFU, CCNY / Fold change vs veh, CCNY / RFU, UFL1 / Fold change vs veh, UFL1 / RFU, COG3 / Fold change vs veh, COG3 / RFU, DIAPH2 / Fold change vs veh, DIAPH2 / RFU, SKA2 / Fold change vs veh, SKA2 / RFU, AFF3 / Fold change vs veh, AFF3 / RFU, LMF1 / Fold change vs veh, LMF1 / RFU, IPO11 / Fold change vs veh, IPO11 / RFU, DFFB / Fold change vs veh, DFFB / RFU, FOXP1 / Fold change vs veh, FOXP1 / RFU, CARD8 / Fold change vs veh, CARD8 / RFU, STRN3 / Fold change vs veh, STRN3 / RFU, ADK / Fold change vs veh, ADK / RFU, RASSF2 / Fold change vs veh, RASSF2 / RFU, WIPF1 / Fold change vs veh, WIPF1 / RFU, LARP1B / Fold change vs veh, LARP1B / RFU, RASA1 / Fold change vs veh, RASA1 / RFU, RB1 / Fold change vs veh, RB1 / RFU, PPFIA1 / Fold change vs veh, PPFIA1 / RFU, MAT2A / Fold change vs veh, MAT2A / RFU, CCT5 / Fold change vs veh, CCT5 / RFU, WDR92 / Fold change vs veh, WDR92 / RFU, CUX1 / Fold change vs veh, CUX1 / RFU, TTC7A / Fold change vs veh, TTC7A / RFU, TMEM135 / Fold change vs veh, TMEM135 / RFU, DEPTOR / Fold change vs veh, DEPTOR / RFU, CPM / Fold change vs veh, CPM / RFU, DNAJB6 / Fold change vs veh, DNAJB6 / RFU, CACNA2D3 / Fold change vs veh, CACNA2D3 / RFU, DTX4 / Fold change vs veh, DTX4 / RFU, TFCP2 / Fold change vs veh, TFCP2 / RFU, GMCL1 /// GMCL1P1 / Fold change vs veh, GMCL1 /// GMCL1P1 / RFU, AEBP2 / Fold change vs veh, AEBP2 / RFU, SNHG1 /// SNORD22 /// SNORD25 /// SNORD26 /// SNORD27 /// SNORD28 /// SNORD29 /// SNORD31 / Fold change vs veh, SNHG1 /// SNORD22 /// SNORD25 /// SNORD26 /// SNORD27 /// SNORD28 /// SNORD29 /// SNORD31 / Fold change (Aza/veh), C12orf56 (ProbeSet 11735607_a_at) / Fold change (ACY-1035/veh), C12orf56 (ProbeSet 11735607_a_at) / Fold change (Aza/veh), FGFR1OP (ProbeSet 11751329_s_at) / Fold change (ACY-1035/veh), FGFR1OP (ProbeSet 11751329_s_at) / Fold change (Aza/veh), VPS36 (ProbeSet 11739960_a_at) / Fold change (ACY-1035/veh), VPS36 (ProbeSet 11739960_a_at) / RFU SYPL1 (11715823_x_at) / Fold change /veh SYPL1 (11715823_x_at) / RFU IGFBP7 (11715501_s_at) / Fold change /veh IGFBP7 (11715501_s_at) / RFU REEP3 (11722064_at) / Fold change /veh REEP3 (11722064_at) / RFU IGLL1 (11728026_x_at) / Fold change /veh IGLL1 (11728026_x_at): dose or concentration left out as unconfirmed
Settings: MV-4-11 cells, 48 hours

Nc1ncn([C@@H]2O[C@H](CO)[C@@H](O)[C@H]2O)c(=O)n1 [azacitidine]
Fold change /veh SPINT1 (11716480_a_at): 1.00
